Laboratory results: US7091247B2, “Biphenyl compound” (Takeda Pharmaceutical Company Limited, priority 2000, dated 2006)
Structures can show the parent of a compound that is named as a salt.

What was measured:
[1] = target: T1, human somatostatin receptor protein subtype 5 (SSTR5) (Homo sapiens, UniProt P35346); experiment: Inhibition of binding of [125I]-somatostatin to SSTR5-expressing CHO cell membrane fraction; settings: 25° C., 60 minutes, Hill plots, read-out: IC50 (concentration at which 50% binding of [125I]-somatostatin was inhibited)
T1 construct: expressed in transfected cells; host or cells: CHO (dhfr-) cells transfected with pA-1-11-SSTR5; clone SSTR5-32-4
Protocol: (3) —(CH2)h1—X^1—(CH2)h2—X^2—(CH2)h3— (h1, h2 and h3 are the same or different integers 0 to 10 provided that the sum of h1, h2 and h3 is 0 to 10, and X^1 and X^2 independently represent NH, O, S, SO or SO2 provided that, when h2 is 0, at least one of X^1 and X^2 is preferably NH); etc., and these divalent groups wherein some bonds have been converted into unsaturated bonds. […]
The SSTR5-expressing CHO cell membrane fraction prepared in Example 5 was diluted with the assay buffer to prepare a solution at a concentration of 3 •g/ml and pipetted into tubes (173 •l/tube). […] After filtration, the radioactivity of [^125I]-somatostatin remaining on the glass filer was measured with a • counter.
The degree of inhibition of binding (%) by each test substance was determined according to the following equation: The degree of inhibition of binding (%)=(radioactivity when the compound was added−radioactivity when DMSO solution was added)/(radioactivity when somatostatin was added−radioactivity when DMSO solution was added)×100. […]

human GPR14 = target: T2, human GPR14 (Homo sapiens, UniProt Q9UKP6); experiment: Inhibition of binding of [125I]-labeled human urotensin II to human GPR14-expressing CHO cell membrane fraction; settings: 25° C., 3 hours, read-out: Inhibitory concentration (concentration showing 50% inhibition of human GPR14 binding activity)
T2 construct: expressed in transfected cells; host or cells: CHO dhfr- cells stably transfected with pcDNA3.1-hGPR14 (CHO/hGPR14)
T2 sequence (Q9UKP6 1-389): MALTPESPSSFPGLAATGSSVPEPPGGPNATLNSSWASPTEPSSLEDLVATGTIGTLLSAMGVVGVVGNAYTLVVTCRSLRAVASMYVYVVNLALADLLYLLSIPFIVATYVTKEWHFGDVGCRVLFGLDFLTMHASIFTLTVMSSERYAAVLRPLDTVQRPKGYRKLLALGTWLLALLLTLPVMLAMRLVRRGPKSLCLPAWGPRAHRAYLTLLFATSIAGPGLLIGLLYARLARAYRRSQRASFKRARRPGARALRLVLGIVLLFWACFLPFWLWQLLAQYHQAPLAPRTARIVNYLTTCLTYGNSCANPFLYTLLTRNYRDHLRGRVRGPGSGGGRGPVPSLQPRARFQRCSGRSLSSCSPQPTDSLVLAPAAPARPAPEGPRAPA
Protocol: To 1×10^8 CHO/GPR14 cells were added 10 ml of homogenate buffer (10 mM NaHCO3, 5 mM EDTA, 0.5 mM PMSF, 1 μg/ml pepstatin, 4 μg/ml E64, 20 μg/ml leupeptin), and disrupted using Polytron (12,000 rpm, 1 minute). Cell debris solution was centrifuged at 1,000 g for 15 minutes to obtain a supernatant. The supernatant was then […] (in Beckman type 30 rotor, 30,000 rpm, 1 hour), and the resultant precipitant was collected as human GPR14-expressing CHO cell fraction.
Isotope-labeled human urotensin II to be used in experiments for testing inhibition of binding was prepared as described below. 5 μg of human urotensin II (available from Peptide Institute, Inc.) was dissolved in 25 μl of 0.4 M sodium acetate (pH 5.6). […]
Human GPR14-expressing CHO cell fraction was diluted in a membrane diluting buffer (20 mM phosphate buffer (pH 7.3), 150 mM NaCl, 5 mM MgCl2, 0.1% BSA, 0.05% CHAPS, 0.5 mM PMSF, 0.1 μg/ml Pepstatin, 20 μg/ml Leupeptin, 4 μg/ml E-64) to prepare a solution of cell membrane fraction (protein concentration: 3 μg/ml) for assay. […] Next, the filter was washed three times with membrane diluting buffer (0.2 ml), added with 20 μl of Microscinti 20 (Packard), and determined for radioactivity in Topcount (Packard). Specific-binding is calculated by subtracting non-specific binding from the total binding. […]

[2] = target: T3, GPR14-expressing CHO cells (Homo sapiens, UniProt Q9UKP6); experiment: Change in intracellular calcium concentration in human GPR14-expressing CHO cells (FLIPR, urotensin II-induced); format: cell-based; settings: antagonist activity assay, 10 nM urotensin II added
T3 construct: expressed in transfected cells; host or cells: CHO dhfr- cells stably transfected with pcDNA3.1-hGPR14 (CHO/hGPR14)
T3 sequence (Q9UKP6 1-389): T2 sequence (Q9UKP6 1-389)
Protocol: GPR14-expressing CHO cells were inoculated on a 96-well plate at 1×10^4 cell/well, cultured for 48 hours, and then washed with 0.1 ml of HBSS containing 20 mM HEPES(pH 7.4), 1% FCS and 1% penicillin-streptomycin (hereinafter referred to as “wash buffer”). Next, 100 μl of another wash buffer containing 4 μM Fluo3, 0.04% pluronic acid and 2.5 mM probenicid (hereinafter referred to as “reaction buffer”) was added thereto for reaction at 37° C. for 1 hour. The reaction buffer was then removed and the plate was washed three times with 0.2 ml of wash buffer. Then, 90 μl of wash buffer and 10 μl of a solution of test compound in dimethylsulfoxide diluted 10 times (by volume) in membrane diluting buffer were added for agonist activity assay, while, for antagonist activity assay, furthermore 10 μl of 10 nM urotensin II was additionally added to determine change in intracellular calcium concentration in FLIPR (Japan Molecular Device).

T1 sequence (P35346 whole entry): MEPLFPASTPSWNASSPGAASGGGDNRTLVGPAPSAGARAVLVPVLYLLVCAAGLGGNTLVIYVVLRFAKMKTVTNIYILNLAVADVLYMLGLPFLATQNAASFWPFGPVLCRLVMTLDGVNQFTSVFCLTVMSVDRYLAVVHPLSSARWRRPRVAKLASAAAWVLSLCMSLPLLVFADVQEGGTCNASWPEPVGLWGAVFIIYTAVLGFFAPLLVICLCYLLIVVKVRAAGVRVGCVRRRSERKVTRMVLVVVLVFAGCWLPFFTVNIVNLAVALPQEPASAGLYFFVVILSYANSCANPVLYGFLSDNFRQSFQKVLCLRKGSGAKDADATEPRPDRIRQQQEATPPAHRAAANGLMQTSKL

SMILES | IC50 [1] | IC50 (human GPR14) | also measured
N=C(N)NCc1cccc(C(=O)N(Cc2cccc(-c3ccccc3C(=O)NCCN)c2)Cc2cccc3ccccc23)c1 [Example 325, N-(2-Aminoethyl)-3′-{[[3-({[amino(imino)methyl]amino}methyl)benzoyl](1-naphthylmethyl)amino]methyl}-1,1′-biphenyl-2-carboxamide trifluoroacetate] | 6 nM | – | –
NS(=O)(=O)c1ccc(CCN(Cc2cccc(-c3cccc(C(=O)NCCN4CCCC4)c3)c2)C(=O)CCCc2ccccc2)cc1 [Example 4, 3′-{({2-[4-(Aminosulfonyl)phenyl]ethyl}[4-phenylbutanoyl]amino)methyl}-N-[2-(1-pyrrolidinyl)ethyl][1,1′-biphenyl]-3-carboxamide hydrochloride] | – | 10 nM | –
NCCNC(=O)c1cccc(-c2cccc(CN(CCc3ccc(S(N)(=O)=O)cc3)C(=O)/C=C/c3ccccc3)c2)c1.O=C(O)C(F)(F)F [Example 71, N-(2-Aminoethyl)-3′-({[4-(aminosulfonyl)phenethyl][(E)-3-phenyl-2-propenoyl]amino}methyl)[1,1′-biphenyl]-3-carboxamide trifluoroacetate] | – | – | Inhibition of urotensin II-induced increase in intracellular calcium concentration [2]: inhibited urotensin II-induced increase in intracellular calcium concentration
NS(=O)(=O)c1ccc(CCN(Cc2cccc(-c3cccc(C(=O)NCCN4CCCC4)c3)c2)C(=O)COCc2ccccc2)cc1 [Example 6, 3′-{({2-[4-(Aminosulfonyl)phenyl]ethyl}[(benzyloxy)acetyl]amino)methyl}-N-[2-(1-pyrrolidinyl)ethyl][1,1′-biphenyl]-3-carboxamide hydrochloride] | – | 13 nM | –
NCCNC(=O)c1ccccc1-c1cccc(CN(Cc2cccc3ccccc23)C(=O)c2ccc(S(N)(=O)=O)cc2)c1 [Example 328, N-(2-Aminoethyl)-3′-{[[4-(aminosulfonyl)benzoyl](1-naphthylmethyl)amino]methyl}-1,1′-biphenyl-2-carboxamide trifluoroacetate] | 3 nM | – | –
